From ChEMBL document CHEMBL1152749, “Haemolytic activity, cytotoxicity and membrane cell permeabilization of semi-synthetic and natural lupane- and oleanane-type saponins” (Bioorg Med Chem, 2009)

Assays:
A549 [1] = test: Cell membrane permeabilization in human A549 cells assessed as drug level causing decrease in calcein fluorescence; assay type: ADME, cell-based
DLD-1 [2] = test: Cell membrane permeabilization in human DLD1 cells assessed as drug level causing decrease in calcein fluorescence; assay type: ADME, cell-based
[3] = Toxicity in sheep erythrocytes assessed as induction of hemolysis; assay type: cell-based, Ovis aries, Erythrocyte; conditions: read-out: HD50 (the source's name)
[4] = Cell membrane permeabilization in human WS1 cells assessed as drug level causing decrease in calcein fluorescence; assay type: ADME, cell-based
[5] = Cytotoxicity against human WS1 cells after 48 hrs by resazurin reduction test; assay type: cell-based; conditions: WS1, 48 h
DLD-1 [6] = test: Cytotoxicity against human DLD1 cells after 48 hrs by resazurin reduction test; assay type: functional, cell-based; conditions: DLD-1, 48 h
A549 [7] = test: Cytotoxicity against human A549 cells after 48 hrs by resazurin reduction test; assay type: functional, cell-based; conditions: A549, 48 h

| SMILES | IC50 (A549 [1]) | IC50 (DLD-1 [2]) | HC50 [3] | IC50 [4] | IC50 [5] | IC50 (DLD-1 [6]) | IC50 (A549 [7]) |
| --- | --- | --- | --- | --- | --- | --- | --- |
| C=C(C)[C@@H]1CC[C@]2(CO)CC[C@]3(C)[C@H](CC[C@@H]4[C@@]5(C)CC[C@H](O[C@H]6O[C@H](CO)[C@@H](O)[C@H](O)[C@@H]6O)C(C)(C)[C@@H]5CC[C@]43C)[C@@H]12 | > 200 µM | > 200 µM | > 100 µM | > 200 µM |  |  |  |
| C=C(C)[C@@H]1CC[C@]2(C(=O)O)CC[C@]3(C)[C@H](CC[C@@H]4[C@@]5(C)CC[C@H](O[C@@H]6O[C@H](CO)[C@@H](O)[C@H](O)[C@H]6O)C(C)(C)[C@@H]5CC[C@]43C)[C@@H]12 | > 200 µM | > 200 µM | > 100 µM | > 200 µM | > 100 µM | 32 µM | > 100 µM |
| C=C(C)[C@@H]1CC[C@]2(C(=O)O)CC[C@]3(C)[C@H](CC[C@@H]4[C@@]5(C)CC[C@H](O[C@H]6O[C@H](CO)[C@@H](O)[C@H](O)[C@@H]6O)C(C)(C)[C@@H]5CC[C@]43C)[C@@H]12 | > 200 µM | > 200 µM | > 100 µM | > 200 µM |  |  |  |
| C=C(C)[C@@H]1CC[C@]2(C(=O)O)CC[C@]3(C)[C@H](CC[C@@H]4[C@@]5(C)CC[C@H](O[C@@H]6O[C@H](CO)[C@H](O)[C@H](O)[C@H]6O)C(C)(C)[C@@H]5CC[C@]43C)[C@@H]12 | > 200 µM | > 200 µM | > 100 µM | > 200 µM | > 100 µM | > 100 µM | > 100 µM |
| C=C(C)[C@@H]1CC[C@]2(C(=O)O)CC[C@]3(C)[C@H](CC[C@@H]4[C@@]5(C)CC[C@H](O[C@@H]6OC[C@@H](O)[C@H](O)[C@H]6O)C(C)(C)[C@@H]5CC[C@]43C)[C@@H]12 | > 200 µM | > 200 µM | > 100 µM | > 200 µM |  |  |  |
| C=C(C)[C@@H]1CC[C@]2(CO)CC[C@]3(C)[C@H](CC[C@@H]4[C@@]5(C)CC[C@H](O[C@@H]6O[C@H](CO)[C@@H](O)[C@H](O)[C@H]6O)C(C)(C)[C@@H]5CC[C@]43C)[C@@H]12 | > 200 µM | > 200 µM | > 100 µM | > 200 µM | > 100 µM | > 100 µM | > 100 µM |
| C=C(C)[C@@H]1CC[C@]2(CO)CC[C@]3(C)[C@H](CC[C@@H]4[C@@]5(C)CC[C@H](O[C@@H]6OC[C@H](O)[C@H](O)[C@H]6O)C(C)(C)[C@@H]5CC[C@]43C)[C@@H]12 | > 200 µM | > 200 µM | > 100 µM | > 200 µM | > 100 µM | > 100 µM | > 100 µM |
| C=C(C)[C@@H]1CC[C@]2(C(=O)O)CC[C@]3(C)[C@H](CC[C@@H]4[C@@]5(C)CC[C@H](O[C@@H]6OC[C@H](O)[C@H](O)[C@H]6O)C(C)(C)[C@@H]5CC[C@]43C)[C@@H]12 | > 200 µM | > 200 µM | > 100 µM | > 200 µM | 19 µM | 11 µM | 12 µM |
| C=C(C)[C@@H]1CC[C@]2(CO[C@@H]3O[C@H](CO)[C@@H](O)[C@H](O)[C@H]3O)CC[C@]3(C)[C@H](CC[C@@H]4[C@@]5(C)CC[C@H](O[C@@H]6O[C@@H](C)[C@H](O)[C@@H](O)[C@H]6O)C(C)(C)[C@@H]5CC[C@]43C)[C@@H]12 | > 200 µM | > 200 µM | > 100 µM | > 200 µM |  |  |  |
| CC1(C)CC[C@]2(C(=O)O)CC[C@]3(C)C(=CC[C@@H]4[C@@]5(C)CC[C@H](O[C@@H]6OC[C@H](O)[C@H](O)[C@H]6O)[C@@](C)(CO)[C@@H]5CC[C@]43C)[C@@H]2C1 | 40 µM | 54 µM | 12 µM | 51 µM | 30 µM | 57 µM | 58 µM |
| C=C(C)[C@@H]1CC[C@]2(C(=O)O[C@@H]3O[C@H](CO)[C@@H](O)[C@H](O)[C@H]3O)CC[C@]3(C)[C@H](CC[C@@H]4[C@@]5(C)CC[C@H](O[C@@H]6O[C@H](CO)[C@@H](O)[C@H](O)[C@H]6O)C(C)(C)[C@@H]5CC[C@]43C)[C@@H]12 | > 200 µM | > 200 µM | > 100 µM | > 200 µM |  |  |  |
| C=C(C)[C@@H]1CC[C@]2(CO[C@@H]3O[C@H](CO)[C@@H](O)[C@H](O)[C@H]3O)CC[C@]3(C)[C@H](CC[C@@H]4[C@@]5(C)CC[C@H](O[C@@H]6OC[C@H](O)[C@H](O)[C@H]6O)C(C)(C)[C@@H]5CC[C@]43C)[C@@H]12 | > 200 µM | > 200 µM | > 100 µM | > 200 µM |  |  |  |
| C=C(C)[C@@H]1CC[C@]2(C(=O)O)CC[C@]3(C)[C@H](CC[C@@H]4[C@@]5(C)CC[C@H](O[C@@H]6O[C@@H](C)[C@H](O)[C@@H](O)[C@H]6O)C(C)(C)[C@@H]5CC[C@]43C)[C@@H]12 | > 200 µM | > 200 µM | > 100 µM | > 200 µM | 31 µM | 3.9 µM | 2.6 µM |
| C=C(C)[C@@H]1CC[C@]2(C(=O)O[C@@H]3O[C@H](CO)[C@@H](O)[C@H](O)[C@H]3O)CC[C@]3(C)[C@H](CC[C@@H]4[C@@]5(C)CC[C@H](O)C(C)(C)[C@@H]5CC[C@]43C)[C@@H]12 | > 200 µM | > 200 µM | > 100 µM | > 200 µM |  |  |  |
| C=C(C)[C@@H]1CC[C@]2(CO)CC[C@]3(C)[C@H](CC[C@@H]4[C@@]5(C)CC[C@H](O[C@@H]6O[C@@H](CO)[C@H](O)[C@H]6O)C(C)(C)[C@@H]5CC[C@]43C)[C@@H]12 | > 200 µM | > 200 µM | > 100 µM | > 200 µM | > 100 µM | > 100 µM | > 100 µM |
| C[C@@H]1O[C@@H](O[C@H]2[C@H](O[C@H]3CC[C@]4(C)[C@H]5CC=C6[C@@H]7CC(C)(C)CC[C@]7(C(=O)O)CC[C@@]6(C)[C@]5(C)CC[C@H]4C3(C)C)OC[C@H](O)[C@@H]2O)[C@H](O)[C@H](O)[C@H]1O | 3 µM | 4 µM | 2 µM | 2.8 µM | 14 µM | 30 µM | 15 µM |
| C=C(C)[C@@H]1CC[C@]2(C(=O)O)CC[C@]3(C)[C@H](CC[C@@H]4[C@@]5(C)CC[C@H](O[C@@H]6O[C@@H](CO)[C@H](O)[C@H]6O)C(C)(C)[C@@H]5CC[C@]43C)[C@@H]12 | > 200 µM | > 200 µM | > 100 µM | > 200 µM | > 100 µM | > 100 µM | > 100 µM |
| C=C(C)[C@@H]1CC[C@]2(C(=O)O[C@@H]3O[C@H](CO)[C@@H](O)[C@H](O)[C@H]3O)CC[C@]3(C)[C@H](CC[C@@H]4[C@@]5(C)CC[C@H](O[C@@H]6OC[C@H](O)[C@H](O)[C@H]6O)C(C)(C)[C@@H]5CC[C@]43C)[C@@H]12 | > 200 µM | > 200 µM | > 100 µM | > 200 µM |  |  |  |
| C=C(C)[C@@H]1CC[C@]2(C(=O)O)CC[C@]3(C)[C@H](CC[C@@H]4[C@@]5(C)CC[C@H](O[C@H]6OC[C@@H](O)[C@@H](O)[C@@H]6O)C(C)(C)[C@@H]5CC[C@]43C)[C@@H]12 | > 200 µM | > 200 µM | > 100 µM | > 200 µM | 47 µM | 17 µM | 10 µM |
| C=C(C)[C@@H]1CC[C@]2(CO[C@@H]3O[C@H](CO)[C@@H](O)[C@H](O)[C@H]3O)CC[C@]3(C)[C@H](CC[C@@H]4[C@@]5(C)CC[C@H](O[C@@H]6O[C@H](CO)[C@@H](O)[C@H](O)[C@H]6O)C(C)(C)[C@@H]5CC[C@]43C)[C@@H]12 | > 200 µM | > 200 µM | > 100 µM | > 200 µM |  |  |  |
| C=C(C)[C@@H]1CC[C@]2(CO[C@@H]3O[C@@H](C)[C@H](O)[C@@H](O)[C@H]3O)CC[C@]3(C)[C@H](CC[C@@H]4[C@@]5(C)CC[C@H](O[C@@H]6O[C@@H](C)[C@H](O)[C@@H](O)[C@H]6O)C(C)(C)[C@@H]5CC[C@]43C)[C@@H]12 | > 200 µM | > 200 µM | > 100 µM | > 200 µM |  |  |  |
| C=C(C)[C@@H]1CC[C@]2(C(=O)O[C@@H]3O[C@H](CO)[C@@H](O)[C@H](O)[C@H]3O)CC[C@]3(C)[C@H](CC[C@@H]4[C@@]5(C)CC[C@H](O[C@@H]6O[C@@H](C)[C@H](O)[C@@H](O)[C@H]6O)C(C)(C)[C@@H]5CC[C@]43C)[C@@H]12 | > 200 µM | > 200 µM | > 100 µM | > 200 µM |  |  |  |
| C=C(C)[C@@H]1CC[C@]2(C(=O)O[C@@H]3O[C@@H](C)[C@H](O)[C@@H](O)[C@H]3O)CC[C@]3(C)[C@H](CC[C@@H]4[C@@]5(C)CC[C@H](O[C@@H]6O[C@@H](C)[C@H](O)[C@@H](O)[C@H]6O)C(C)(C)[C@@H]5CC[C@]43C)[C@@H]12 | > 200 µM | > 200 µM | 85 µM | > 200 µM |  |  |  |
| C=C(C)[C@@H]1CC[C@]2(C(=O)O)CC[C@]3(C)[C@H](CC[C@@H]4[C@@]5(C)CC[C@H](O)C(C)(C)[C@@H]5CC[C@]43C)[C@@H]12 [BETULINIC ACID] | > 200 µM | > 200 µM | > 100 µM | > 200 µM |  |  |  |
| C=C(C)[C@@H]1CC[C@]2(CO)CC[C@]3(C)[C@H](CC[C@@H]4[C@@]5(C)CC[C@H](O)C(C)(C)[C@@H]5CC[C@]43C)[C@@H]12 [BETULIN] | > 200 µM | > 200 µM | > 100 µM | > 200 µM |  |  |  |
